Laboratory results as given in the supplement of paper PMC10307832.

Assays:
Experiment in all cases: relative viability (nuclei count vs DMSO), 5 days (fraction); higher = more cells survive
Midostaurin + OSI-027 = compound: CO[C@@H]1[C@H](N(C)C(=O)c2ccccc2)C[C@H]2O[C@]1(C)n1c3ccccc3c3c4c(c5c6ccccc6n2c5c31)C(=O)NC4 [Midostaurin] + COc1cccc2cc(-c3nc([C@H]4CC[C@H](C(=O)O)CC4)n4ncnc(N)c34)[nH]c12 [OSI-027] (partner 0.5 µM)
How it was run: (§1)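 After 5 days of treatment, lung cancer cells in 1536-well plates were fixed and stained in a single step (final 0.05% Triton X-100, 1% formaldehyde, 1 ug/ml Hoechst) and their nuclei counted on 4× images. Treatment had been applied by pin tool the day after seeding as one drug alone or as a fixed anchor-drug dose with five library-drug doses (not always all listed) in √10 steps. Relative viability is the nuclei count of treated wells divided by that of vehicle wells, and values are medians of duplicate plates.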

Midostaurin + Vorinostat = compound: CO[C@@H]1[C@H](N(C)C(=O)c2ccccc2)C[C@H]2O[C@]1(C)n1c3ccccc3c3c4c(c5c6ccccc6n2c5c31)C(=O)NC4 [Midostaurin] + O=C(CCCCCCC(=O)Nc1ccccc1)NO [Vorinostat] (partner 1 µM)
How it was run: as §1

[1] = compound: COc1cc(-c2nn([C@H]3CC[C@H](N4CCN(C(C)=O)CC4)CC3)c3ncnc(N)c23)ccc1NC(=O)c1cc2ccccc2n1C + CC1(C)CCC(c2ccc(Cl)cc2)=C(CN2CCN(c3ccc(C(=O)NS(=O)(=O)c4ccc(N[C@H](CCN5CCOCC5)CSc5ccccc5)c(S(=O)(=O)C(F)(F)F)c4)cc3)CC2)C1 [Navitoclax] (partner 0.5 µM)
How it was run: as §1

[2] = compound: COc1cc(-c2nn([C@H]3CC[C@H](N4CCN(C(C)=O)CC4)CC3)c3ncnc(N)c23)ccc1NC(=O)c1cc2ccccc2n1C + CS(=O)(=O)N1CCN(Cc2cc3nc(-c4cccc5[nH]ncc45)nc(N4CCOCC4)c3s2)CC1 [Pictilisib] (partner 1 µM)
How it was run: as §1

[3] = compound: COc1cc(-c2nn([C@H]3CC[C@H](N4CCN(C(C)=O)CC4)CC3)c3ncnc(N)c23)ccc1NC(=O)c1cc2ccccc2n1C + C[C@]1(O)C[C@@H](c2nc(-c3ccc4ccc(-c5ccccc5)nc4c3)c3c(N)nccn32)C1 [Linsitinib] (partner 1 µM)
How it was run: as §1

Cell Line	relative viability (Midostaurin + OSI-027; first compound 0.01 µM)	relative viability (Midostaurin + OSI-027; first compound 0.03162 µM)	relative viability (Midostaurin + OSI-027; first compound 0.1 µM)	relative viability (Midostaurin + OSI-027; first compound 0.3162 µM)	relative viability (Midostaurin + Vorinostat; first compound 0.01 µM)	relative viability (Midostaurin + Vorinostat; first compound 0.03162 µM)	relative viability (Midostaurin + Vorinostat; first compound 0.1 µM)	relative viability (Midostaurin + Vorinostat; first compound 0.3162 µM)	relative viability ([1]; first compound 0.0128 µM)	relative viability ([1]; first compound 0.04048 µM)	relative viability ([1]; first compound 0.128 µM)	relative viability ([1]; first compound 1.28 µM)	relative viability ([2]; first compound 0.0128 µM)	relative viability ([2]; first compound 0.04048 µM)	relative viability ([2]; first compound 0.128 µM)	relative viability ([2]; first compound 1.28 µM)	relative viability ([3]; first compound 0.0128 µM)	relative viability ([3]; first compound 0.04048 µM)	relative viability ([3]; first compound 0.128 µM)	relative viability ([3]; first compound 1.28 µM)
NCI-H2087	0.567	0.491	0.573	0.554	0.56	0.528	0.462	0.429	1.03	0.908	1.02	1.2	1.06	0.399	0.842	0.753	1.1	0.875	1.12	1.11
NCI-H2126	0.808	0.545	0.685	0.666	0.812	0.631	0.866	0.831	0.858	0.863	0.79	0.641	0.567	0.434	0.48	0.438	0.825	0.765	0.701	0.537
NCI-H2228	0.652	0.603	0.687	0.703	0.878	0.424	0.716	0.356	0.825	1.17	0.91	0.745	0.408	0.275	0.337	0.375	0.54	0.883	0.649	0.643
NCI-H2347	0.453	0.35	0.365	0.38	0.575	0.511	0.602	0.419	0.864	0.794	0.769	0.858	0.754	0.579	0.772	0.414	0.949	0.856	0.961	1.09
NCI-H2405	0.65	0.6	0.525	0.633	1.05	1.24	1.01	1.02	0.744	0.639	0.729	0.265	0.422	0.26	0.303	0.258	0.886	0.541	0.721	0.326
NCI-H3122	0.932	0.492	1.06	1.41	0.963	0.904	0.905	0.89	1.03		1.01	0.869	0.552		0.548	0.484	1.1		1	0.875
PC-3 [JPC-3]	0.718	0.579	0.78	0.806	0.776	0.788	0.68	1.07	0.904	0.803	0.776	0.86	0.65	0.791	0.721	0.764	1.02	0.957	0.966	0.997
PC-14	0.92	0.811	0.875	1.02	0.719	0.673	0.67	0.666	1.05	1.05	0.987	1.21	0.744	0.792	0.664	0.625	0.929	1.01	0.938	0.98
RERF-LC-KJ	0.622	0.614	0.673	0.663	0.715	0.709	0.67	0.646	0.829	1.09	0.94	0.837	0.572	0.557	1.11	0.538	0.895	0.882	0.878	0.793
SK-LU-1	0.347	0.333	0.321	0.271	0.735	0.765	0.685	0.47	0.95	0.801	0.544	0.567	0.54	0.488	0.498	0.269	1.23	1.26	0.839	0.558
SK-MES-1	0.55	0.531	0.548	0.44	1.07	0.968	0.982	1.08	1.37	1.39	1.14	1.15	0.343	0.402	0.361	0.221	1.13	1.17	1.07	1.06
SW 1573	0.619	0.82	0.581	0.748	0.717	1.09	0.732	1.02	0.817	1.02	1.02	0.716	0.496	0.497	0.497	0.362	0.706	0.72	0.63	0.598
